According to PMC10815964, “Cyclobutanone Inhibitors of Diaminopimelate Desuccinylase (DapE) as Potential New Antibiotics” (International Journal of Molecular Sciences, 2024):

How the values were obtained:
HiDapE = HiDapE (Haemophilus influenzae, UniProt P44514); experiment: DapE inhibition, ninhydrin-based assay; assay type: biochemical; settings: for inhibition at 100 µM: 100 µM inhibitor, read-out: DapE % Inhib at 100 µM; for IC50: ninhydrin assay
Description: All compounds were screened for DapE inhibitory potency using a ninhydrin-based assay at 100 μM, and IC50 values were determined for molecules that inhibited DapE > 70% at 100 μM (Table 1). Some SAR trends emerge from the data.
Experimental IC50 curves for cyclobutanone inhibitors against DapE were identified as sigmoidal shaped response curves, as opposed to simple hyperbolic plots. […] IC50 curves with the corresponding Hill coefficients are reported in the Supplementary Materials as Figures S74−S81. Experimental Hill coefficients may provide information on the number of binding sites of a biological target (receptors and enzymes) interacting with ligands.
The inhibition of HiDapE by potential inhibitors was assessed using the previously developed ninhydrin assay with slight modifications. It was performed in a PCR Thermal Cycler System. All experiments were performed in triplicate in 50 mM HEPES buffer at pH 7.5. Reaction volumes were 100 µL of 2 mM N^6-Methyl-L,L-SDAP and 8 nM HiDapE. Ninhydrin was purchased as a 2% solution in 100% DMSO/lithium acetate buffer at pH 5.2. The inhibitor, followed by HiDapE, was added to a 50 mM HEPES (pH 7.5) buffered solution at 30 °C, and the mixture was incubated at 30 °C for 10 min. N^6-Methyl-L,L-SDAP was added, and the reaction mixture was incubated at 30 °C for 10 min, then heated to 99 °C for 1 min, and further cooled to 0 °C for 1 min. The 2% ninhydrin solution (50 µL) was added, and the mixture was thoroughly mixed. The reaction mixture was heated to 80 °C for 15 min, then cooled to 0 °C for 1 min. The absorbance of an 80 μL aliquot was recorded at 570 nm on a BioTek Synergy 2 microplate reader. All the inhibition assays of HiDapE were performed in triplicate and the IC50 values were obtained by fitting the data following the modified Hill equation: V = V0 + (Vmax − V0) XnH/(XnH0.5 + XnH) using the graphing suite Origin 9.1 with the Levenberg–Marquardt non-linear least-squares algorithm. The velocity in the absence of the substrate is […]; the velocity at saturating concentrations of the substrate or with no inhibitor for the inhibition assay is Vmax; X is the concentration of the substrate or inhibitor; and X0.5 is the substrate (S0.5) and inhibitor (I0.5) concentration at 50% maximum velocity and at 50% inhibition, respectively. The Hill coefficient is represented as nH.

HiDapE, sequence (P44514 whole entry): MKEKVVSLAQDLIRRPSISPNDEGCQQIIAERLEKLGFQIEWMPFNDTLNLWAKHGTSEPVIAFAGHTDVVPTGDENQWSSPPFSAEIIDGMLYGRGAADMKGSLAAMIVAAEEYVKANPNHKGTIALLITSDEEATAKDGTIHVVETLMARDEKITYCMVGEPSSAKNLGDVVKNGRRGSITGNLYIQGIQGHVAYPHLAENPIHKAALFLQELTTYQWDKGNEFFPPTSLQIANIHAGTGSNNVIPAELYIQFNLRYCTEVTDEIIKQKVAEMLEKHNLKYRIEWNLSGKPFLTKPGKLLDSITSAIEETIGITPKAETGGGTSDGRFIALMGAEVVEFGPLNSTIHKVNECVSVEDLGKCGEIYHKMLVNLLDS

Row | SMILES | melting point | inhibition at 100 µM (HiDapE) | IC50 (HiDapE)
1 | CC(C)[C@@H](NS(=O)(=O)c1ccc(C#N)cc1)C(=O)NC1CCC1=O (mixture of isomers) [3aa, (2R)-2-((4-Cyanophenyl)sulfonamido)-3-methyl-N-(2-oxocyclobutyl)butanamide] | 150 to 151 °C | 5.6% | –
2 | COC(=O)c1ccc(S(=O)(=O)N[C@@H](C(=O)NC2CCC2=O)C(C)C)cc1 (mixture of isomers) [3ab, Methyl 4-(N-((2R)-3-methyl-1-oxo-1-((2-oxocyclobutyl)amino)butan-2-yl)sulfamoyl)benzoate] | 190 to 191 °C | 10.7% | –
3 | CC(C)[C@@H](NS(=O)(=O)c1ccc(O)cc1)C(=O)NC1CCC1=O (mixture of isomers) [3ac, (2R)-2-((4-hydroxyphenyl)sulfonamido)-3-methyl-N-(2-oxocyclobutyl)butanamide] | 139 to 141 °C | 44.4% | –
4 | O=C(N[C@@H](Cc1ccccc1)C(=O)NC1CCC1=O)OCc1ccccc1 (mixture of isomers) [3ad, Benzyl ((2S)-1-oxo-1-((2-oxocyclobutyl)amino)-3-phenylpropan-2-yl)carbamate] | – | 96.2% | 69.8 ± 1.4 µM
5 | O=C(N[C@H](Cc1ccccc1)C(=O)NC1CCC1=O)OCc1ccccc1 (mixture of isomers) [3ae, Benzyl ((2R)-1-oxo-1-((2-oxocyclobutyl)amino)-3-phenylpropan-2-yl)carbamate] | – | 97.9% | 55.4 ± 5.5 µM
6 | O=C(N[C@@H](Cc1ccc(O)cc1)C(=O)NC1CCC1=O)OCc1ccccc1 (mixture of isomers) [3af, Benzyl ((2S)-3-(4-hydroxyphenyl)-1-oxo-1-((2-oxocyclobutyl)amino)propan-2-yl)carbamate] | – | 15.5% | –
7 | CC(C)[C@H](NC(=O)OCc1ccccc1)C(=O)NC1CCC1=O (mixture of isomers) [3ag, Benzyl ((2S)-3-methyl-1-oxo-1-((2-oxocyclobutyl)amino)butan-2-yl)carbamate] | – | 53.9% | –
8 | Cc1ccccc1C(=O)NC1CCC1=O (centres unmarked) [3a, 2-Methyl-N-(2-oxocyclobutyl)benzamide] | 100 to 102 °C | 16.8% | –
9 | O=C1CCC1NS(=O)(=O)c1ccc(C(F)(F)F)cc1 (centres unmarked) [3ah, N-(2-Oxocyclobutyl)-4-(trifluoromethyl)benzenesulfonamide] | 74 to 76 °C | 22.6% | –
10 | O=C1CCC1NS(=O)(=O)c1ccc(F)cc1 (centres unmarked) [3ai, N-(2-Oxocyclobutyl)-4-(fluoro)benzenesulfonamide] | – | 72.9% | 53.3 ± 5.4 µM
11 | Cc1cccc(C(=O)NC2CCC2=O)c1 (centres unmarked) [3b, 3-Methyl-N-(2-oxocyclobutyl)benzamide] | 94 to 96 °C | 37.8% | –
12 | Cc1ccc(C(=O)NC2CCC2=O)cc1 (centres unmarked) [3c, 4-Methyl-N-(2-oxocyclobutyl)benzamide] | 149 to 150 °C | 58.1% | –
13 | O=C(NC1CCC1=O)c1ccccc1Cl (centres unmarked) [3d, 2-Chloro-N-(2-oxocyclobutyl)benzamide] | 102 to 103 °C | 33.6% | –
14 | O=C(NC1CCC1=O)c1cccc(Cl)c1 (centres unmarked) [3e, 3-Chloro-N-(2-oxocyclobutyl)benzamide] | 64 to 66 °C | 45.8% | –

Other lines, results leading:

Row | melting point | inhibition at 100 µM (HiDapE) | IC50 (HiDapE) | SMILES
15 | – | 92.8% | 45.7 ± 1.5 µM | Cc1ccc(S(=O)(=O)N[C@@H](Cc2ccccc2)C(=O)NC2CCC2=O)cc1 (mixture of isomers) [3v, (2S)-2-((4-Methylphenyl)sulfonamido)-N-(2-oxocyclobutyl)-3-phenylpropanamide]
16 | – | 55% | > 50 µM | Cc1ccc(S(=O)(=O)N[C@H](Cc2ccccc2)C(=O)NC2CCC2=O)cc1 (mixture of isomers) [3w, (2R)-2-((4-Methylphenyl)sulfonamido)-N-(2-oxocyclobutyl)-3-phenylpropanamide]
17 | – | 19.6% | – | Cc1ccc(S(=O)(=O)N[C@@H](Cc2c[nH]c3ccccc23)C(=O)NC2CCC2=O)cc1 (mixture of isomers) [3x, (2S)-3-(1H-Indol-3-yl)-2-((4-methylphenyl)sulfonamido)-N-(2-oxocyclobutyl)propanamide]
18 | 179 to 181 °C | 30.7% | – | COc1ccc(S(=O)(=O)N[C@H](C(=O)NC2CCC2=O)C(C)C)cc1 (mixture of isomers) [3z, (2S)-2-((4-Methoxyphenyl)sulfonamido)-3-methyl-N-(2-oxocyclobutyl)butanamide]
19 | 104 to 105 °C | 25.2% | – | O=C(NC1CCC1=O)c1ccc(Br)cc1 (centres unmarked) [3f, 4-Bromo-N-(2-oxocyclobutyl)benzamide]
20 | 134 to 136 °C | 29.1% | – | COc1ccc(C(=O)NC2CCC2=O)cc1Cl (centres unmarked) [3g, 3-Chloro-4-methoxy-N-(2-oxocyclobutyl)benzamide]
21 | 123 to 125 °C | 24.4% | – | COc1cc(Cl)c(C(=O)NC2CCC2=O)cc1OC (centres unmarked) [3h, 2-Chloro-4,5-dimethoxy-N-(2-oxocyclobutyl)benzamide]
22 | 149 to 151 °C | 28.9% | – | O=C(NC1CCC1=O)c1ccccc1O (centres unmarked) [3i, 2-Hydroxy-N-(2-oxocyclobutyl)benzamide]
23 | 131 to 133 °C | 73% | 66.4 ± 2.9 µM | COc1ccc(C(=O)NC2CCC2=O)c(O)c1 (centres unmarked) [3j, 2-Hydroxy-4-methoxy-N-(2-oxocyclobutyl)benzamide]
24 | 144 to 146 °C | 93.7% | 39.6 ± 2.9 µM | COc1cc(C(=O)NC2CCC2=O)cc(OC)c1OC (centres unmarked) [3k, 3,4,5-Trimethoxy-N-(2-oxocyclobutyl)benzamide]
25 | 97 to 99 °C | 25.6% | – | O=C(NC1CCC1=O)c1ccccn1 (centres unmarked) [3l, N-(2-Oxocyclobutyl)picolinamide]
26 | – | 24.9% | – | O=C(NC1CCC1=O)c1cccnc1 (centres unmarked) [3m, N-(2-Oxocyclobutyl)nicotinamide]
27 | 80 to 82 °C | < 5% | – | O=C(NC1CCC1=O)c1cccnc1Cl (centres unmarked) [3n, 2-Chloro-N-(2-oxocyclobutyl)nicotinamide]
28 | 114 to 115 °C | 34.6% | – | O=C(NC1CCC1=O)c1cncc(Br)c1 (centres unmarked) [3o, 5-Bromo-N-(2-oxocyclobutyl)nicotinamide]
29 | 119 to 121 °C | < 5% | – | O=C(NC1CCC1=O)c1ccncc1 (centres unmarked) [3p, N-(2-Oxocyclobutyl)isonicotinamide]
30 | 155 to 156 °C | 48% | – | O=C(NC1CCC1=O)c1cnc2ccccc2c1 (centres unmarked) [3q, N-(2-Oxocyclobutyl)quinoline-3-carboxamide]
31 | 89 to 91 °C | < 5% | – | O=C(NC1CCC1=O)c1cccc2cccnc12 (centres unmarked) [3r, N-(2-Oxocyclobutyl)quinoline-8-carboxamide]
32 | – | 36.4% | – | Cc1ccc(S(=O)(=O)N[C@@H](Cc2ccccc2)C(=O)NCC2(O)CC2)cc1 [4a, (S)-N-((1-hydroxycyclopropyl)methyl)-2-((4-methylphenyl)sulfonamido)-3-phenylpropanamide]
33 | – | 19.1% | – | Cc1ccc(S(=O)(=O)N[C@@H](Cc2ccccc2)C(=O)NCC(C)(C)O)cc1 [4b, (S)-N-(2-hydroxy-2-methylpropyl)-2-((4-methylphenyl)sulfonamido)-3-phenylpropanamide]
